In general, half-life refers to the time needed for the level to fall by half in the phase considered. As usually defined, the microsomal CLint is the rate of metabolic loss divided by the concentration.

Consider four compounds from patent US11992497B2 (priority 2021, dated 2024).

One series addresses T1, UGT1A1 (Homo sapiens, UniProt P22309).
T1 sequence (P22309 26-533): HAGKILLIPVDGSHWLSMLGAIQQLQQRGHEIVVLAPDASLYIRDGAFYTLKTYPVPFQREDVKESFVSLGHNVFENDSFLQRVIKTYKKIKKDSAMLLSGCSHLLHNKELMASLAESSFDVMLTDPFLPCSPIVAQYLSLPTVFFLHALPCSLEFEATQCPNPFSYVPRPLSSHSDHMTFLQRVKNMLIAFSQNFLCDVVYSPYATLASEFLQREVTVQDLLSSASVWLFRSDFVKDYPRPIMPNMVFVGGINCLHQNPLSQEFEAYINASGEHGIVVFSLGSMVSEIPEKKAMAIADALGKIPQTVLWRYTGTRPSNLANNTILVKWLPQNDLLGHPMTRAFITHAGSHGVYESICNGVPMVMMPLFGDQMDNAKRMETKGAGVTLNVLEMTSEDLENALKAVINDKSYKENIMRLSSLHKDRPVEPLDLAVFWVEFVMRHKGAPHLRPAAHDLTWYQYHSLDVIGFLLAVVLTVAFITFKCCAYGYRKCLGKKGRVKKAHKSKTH
The series can be described thus: in vitro. To be noted: recombinant enzyme, pH 7.4. Here is the method:
(§1) Experimental Summary: UGT Reaction Phenotyping (7 Isoforms).
(§2) Experimental Procedure: cDNA expressed human UGT enzyme preparations (Supersomes) supplied by BD Biosciences were obtained and stored at −80° C. prior to use. The specific isoforms were chosen by the performing laboratory based on published guidelines. They are considered the clinically relevant of the UGT isoforms (E. Kasteel et al. Human variability in isoform-specific UDP-glucuronosyltransferases: markers of acute and chronic exposure, polymorphisms and uncertainty factors. Arch Toxicol. 2020; 94(8): 2637-2661)
(§3) Supersomes in 0.1 M Tris buffer pH 7.4, alamethicin (44.6 μg/mL) and test compound (final concentration of 5 μM; final DMSO concentration ≤0.1%) were pre-incubated at 37° C. prior to the addition of UDGPA (final concentration 2 mM) to initiate the reaction. Incubations were also performed using control Supersomes (no UGT enzymes present) to reveal any non-enzymatic degradation. Compounds known to be metabolized specifically by each UGT isoform were used as control compounds (7-hydroxy-4-trifluoromethylcoumarin, all but UGT1A4, or trifluoperazine for UGT1A4).
(§4) CBG or Compound 1 were incubated in duplicate for 0, 10, 20, 40 and 60 min with each isoform. The reactions were stopped by the addition of methanol containing an analytical internal standard at the time points specified in the table above. Stopped reactions were kept on ice for at least ten minutes and the samples were centrifuged to remove precipitated protein. Supernatants were analyzed by LC-MS/MS methodology developed by the performing laboratory to quantitate the parent remaining.
(§5) The change in CBG concentration were used to calculate the Half life (t1/2 in min) and the intrinsic clearance ([…]) as shown in the following table (S. C, Khojasteh et.al., Drug Metabolism and Pharmacokinetics Quick Guide, Springer, NY, 2011), Intrinsic Clearance (CIint) is a measure of the ability of hepatocytes to eliminate drug irrespective other factors such as blood flow or protein binding. The calculations were the same as those used in Example 3A.

The next series has as its target T2, UGT1A9 (Homo sapiens, UniProt O60656).
T2 sequence (O60656 26-530): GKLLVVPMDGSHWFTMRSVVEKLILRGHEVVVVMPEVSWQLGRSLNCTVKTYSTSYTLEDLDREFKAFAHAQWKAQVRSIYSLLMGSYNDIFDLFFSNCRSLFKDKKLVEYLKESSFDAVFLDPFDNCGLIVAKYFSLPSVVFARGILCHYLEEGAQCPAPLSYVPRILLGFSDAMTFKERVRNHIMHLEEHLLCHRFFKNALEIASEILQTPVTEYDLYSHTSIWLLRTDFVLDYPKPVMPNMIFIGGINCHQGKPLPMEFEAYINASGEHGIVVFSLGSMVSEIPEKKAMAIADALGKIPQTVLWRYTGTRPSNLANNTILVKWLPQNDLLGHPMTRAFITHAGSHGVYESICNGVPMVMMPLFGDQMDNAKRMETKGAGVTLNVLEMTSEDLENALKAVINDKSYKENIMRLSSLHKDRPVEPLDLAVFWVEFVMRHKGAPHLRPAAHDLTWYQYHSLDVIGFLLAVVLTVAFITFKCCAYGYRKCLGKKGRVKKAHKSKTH
The series can be described thus: in vitro. To be noted: pH 7.4; for half-life at 1 µM / microsomal CLint at 1 µM: recombinant enzyme. Here is the method: as §1, §2, §3, §4, §5

Series [1] is described as follows: PK study of CBG, Compound 1 and Compound 2, PO or IP. The class given is in vivo, male Sprague Dawley rats. To be noted: CBG 30 mg/kg PO and IP; Compound 1 31.5 mg/kg PO; Compound 2 32.7 mg/kg PO. Here is the method:
This study evaluated the pharmacokinetics of (E)-2-(3,7-dimethylocta-2,6-dien-1-yl)-3-methoxy-5-pentylphenol (1) and (E)-2-(3,7-dimethylocta-2,6-dien-1-yl)-1,3-dimethoxy-5-pentylbenzene (2) following oral (PO) or intraperitoneal (IP) administration to male Sprague Dawley rats.
For the oral formulation the test article was added to the appropriate amount of Maisine and stirred until uniform. Next Labrasol was added to the formulation and allowed to stir until uniform. Finally, water will be slowly added to the stirring formulation to achieve the final volume.
For the IP formulation the test article was added to the appropriate amount of ethanol and stirred until uniform. Next, the appropriate amount of tween-20 was added to the stirred formulation. Finally, the appropriate amount of saline was slowly added to the stirred formulation to achieve the final volume.
Animals were fasted the evening prior to dosing with food returned at 4 h postdose, and the animals weighed on the morning of dose administration.
IP doses were administered via injection to the intraperitoneal region. PO doses were delivered into the stomach via syringe and gavage tube.
Blood was collected from via direct jugular stick or from the tail vein. Blood samples were kept on ice until being centrifuged at 3200 RPM for 10 minutes at ˜5° C. within 1 h of collection. Plasma was split into 2 cryovials in approximately equal volumes (0.05 mLs) and stored at −20° C.±5° C. until shipment.

As for `O=c1cc(C(F)(F)F)c2ccc(O)cc2o1` [7-OH4trifluoromethylcoumarin, 7-hydroxy-4-trifluoromethylcoumarin], on UGT1A1, the half-life at 1 µM was found to be 33.1 min and the microsomal CLint at 1 µM worked out at 41.8 µL/min/mg. In addition, at UGT1A9, the half-life at 1 µM turned out to be 3.04 min and the microsomal CLint at 1 µM was found to be 456 µL/min/mg.

For the compound `CCCCCc1cc(O)c(C/C=C(\C)CCC=C(C)C)c(OC)c1` [Compound 1, (E)-2-(3,7-dimethylocta-2,6-dien-1-yl)-3-methoxy-5-pentylphenol], on UGT1A1, the half-life at 1 µM turned out to be 103 min and the intrinsic metabolic clearance (microsomal CLint) at 1 µM is 13.5 µL/min/mg. On UGT1A9, the half-life at 1 µM is 14 min and the microsomal CLint at 1 µM is 99.1 µL/min/mg. Also, the “glucuronidation / glucuronide formation in plasma (in words)” value (from here on “glucuronidation / glucuronide formation”) in series [1] is on record as “significantly reduced levels of glucuronidation compared to CBG”.

As to `CCCCCc1cc(O)c(C/C=C(\C)CCC=C(C)C)c(O)c1` [CBG, cannabigerol], at UGT1A1, the half-life at 1 µM came to 77.1 min and the microsomal CLint at 1 µM came to 18 µL/min/mg. For the same compound, the “share of UGT1A9 in the activity with CBG for all the UGTs combined” value on UGT1A9 (5 µM) was about 80%. Moreover, on UGT1A9, the half-life at 1 µM amounted to 1.92 min and the intrinsic metabolic clearance (microsomal CLint) at 1 µM came out at 721 µL/min/mg. Moreover, the “glucuronidation / glucuronide formation” value in series [1] was “converted by glucuronidation to CBG-glucoronide”.

For the compound `CCCCCc1cc(OC)c(C/C=C(\C)CCC=C(C)C)c(OC)c1` [Compound 2, (E)-2-(3,7-dimethylocta-2,6-dien-1-yl)-1,3-dimethoxy-5-pentylbenzene], in series [1], the “glucuronidation / glucuronide formation” value is given as “completely blocked glucuronide formation”.
